Data as given in patent publication US11253565B2, “Nanoparticle ophthalmic composition for the treatment of ocular disorders or diseases” (Eye Pharma S.p.A., priority 2017, dated 2022).

Experiments:
[1] = Corneal permeabilization / bioavailability test on whole ox eye with fluoresceine tracer; type: in vitro ADME; conditions: 30 minutes after application on anterior corneal surface
Description: The bioavailability was tested on whole ox eye (in vitro test) and on rabbit eyes (test in vivo) by applying the eye drops on the anterior corneal surface. A fluorescent tracer (fluoresceine) was added to the eye drops to follow the intraocular pharmacokinetics thereof. The transcorneal distribution of the std eye drops was evaluated by a slit lamp with determination of the fluorescence on both sides of the corneal membrane. A fluorescent tracer was added to the eye drops in order to follow the intraocular pharmacokinetics thereof. […] At the end of the prescribed time, its adsorption through the anterior chamber was assessed using a slit lamp. […] After the treatment, the fluid contained in the anterior chamber was collected and subjected to spectrofluorimetric analysis for the quantification of the tracer able to cross the corneal membrane. For the analysis, a […] spectrofluorometer (Hitachi, Tokyo, Japan) calibrated on specific fluorescence characteristics of fluoresceine (excitation 500 nm, emission 561 nm) was used. […] The ability of the std eye drops, both as such and in nanoparticle form, to pass the corneal membrane was thus determined by analysis del fluorescent track present in the fluid in the anterior chamber 30 minutes after the application of the preparation on the anterior corneal surface.

[2] = system: Sclerocorneal human trabecular meshwork cells (HTM cells); assay: MTT cell viability test on HTM cells with or without H2O2 oxidative damage; type: cell-based; conditions: H2O2 only
Description: (§1) Commercially available endothelial cellular lines of sclerocorneal trabecular meshwork were used. Said lines undergone a physiological ageing lasted about 10 cycles of cellular replication, thus representing a validated in vitro model of sclerocorneal trabecular meshwork degeneration. Sclerocorneal human trabecular meshwork cells (HTM cells. ScienceCell Research Laboratories, CA, USA) were grown in a nutritional medium containing 10% v/v fetal bovine serum, 2 mM L-glutamine, penicillin (100 IU/mL) at 37° C. in the presence of 5% v/v CO2. Once cells were semi-confluent (80% covering of the plate surface), cells were collected by treatment with trypsin/EDTA and distributed in multiwell microplates at a density of 7×10^3 cells/well. Cells at 80% confluence were pre-treated for 30 minutes with 50 μL of eye drops with different polyphenolic concentration (0.15% Perilla frutescens extract in 0.25% sodium hyaluronate (high eye drops) compared with a 0.10% Perilla frutescens extract in 0.25% sodium hyaluronate (standard eye drops)). […]
At the end of the treatment, the culture medium was removed, and cell viability and genotoxic damage were evaluated. […]
In particular, cell viability was assessed using the metabolization test of 3-(4,5-dimethyithiazol-2-yl)-2,5-diphenyltetrazolium bromide (MTT). […] The results were analysed by ANOVA using the Statview statistic software.

[3] = system: HTM cells; assay: Microscopic morphologic aspect of HTM cells in the different conditions of treatment; type: cell-based, human; conditions: treatment with substance only
Description: as §1

[4] = system: HTM cells; assay: Genotoxic damage (comet test) in HTM cells; type: cell-based, human; conditions: treatment with substance only
Description: Commercially available endothelial cellular lines of sclerocorneal trabecular meshwork were used. Said lines undergone a physiological ageing lasted about 10 cycles of cellular replication, thus representing a validated in vitro model of sclerocorneal trabecular meshwork degeneration. Sclerocorneal human trabecular meshwork cells (HTM cells. ScienceCell Research Laboratories, CA, USA) were grown in a nutritional medium containing 10% v/v fetal bovine serum, 2 mM L-glutamine, penicillin (100 IU/mL) at 37° C. in the presence of 5% v/v CO2. […]
For the assessment of genotoxic damage, the comet test was used. […] In particular, the aspect of DNA fragmentation acquired by the comet test in HTM cells was evaluated. […] The images were then analysed at 400 magnifications by fluorescence microscope (Leica DMI 4000B) equipped with digital camera (Leica DFC 310 FX). For each slide a minimum of 100 nuclei were analysed by CASP imaging analysis system (Comet assay software project, http://www.casp.sourceforge.net). Single-strand and double-strand breaks were quantified in terms of “tail moment”, which is the product of the comet tail length multiplied by the total DNA fraction in the tail. […] The significance of differences among the various treatments was determined by ANOVA test.

| SMILES | fluorescent tracer in the fluid of the anterior chamber (spectrofluorimetry) [1] | cytopathic effect (MTT cell viability) [2] | HTM cell morphology [3] | DNA damage / fragmentation (comet test) [4] |
| --- | --- | --- | --- | --- |
| O=C1OC2(c3ccc(O)cc3Oc3cc(O)ccc32)c2ccccc21 [fluoresceine, fluorescein sodium] | conspicuous and specific positive signal | – | – | – |
| OO [H2O2] | – | substantial cytopathic effect | cells take a rounded shape, separate from the substrate and reflect the light | nuclei are massively dissolved with evident diffusion of the fragmented DNA |
